For assay [1], the system named is Human immunodeficiency virus 1. Briefly: Binding affinity to HIV1 5'-[32P]HIV96 RNA assessed as viral RNA cleavage rate constant at 1 mM.
The subject of assay [2] is Human immunodeficiency virus 1. Description: Binding affinity to HIV1 5'-[32P]HIV96 RNA assessed as time of half viral RNA cleavage of at 1 mM.
The test system of a further assay is MDCK. Description: Cytotoxicity against MDCK cells assessed as reduction in cell viability after 24 hrs by MTT assay. It counts as cell-based. Conditions: Canis lupus familiaris.
Assay [3] deals with Human immunodeficiency virus 1. Briefly: Binding affinity to HIV1 5'-[32P]HIV96 RNA assessed as viral RNA cleavage at 1 mM measured after 3 and 7 hrs relative to control.
For assay [4], the system named is Influenza A virus. Briefly: Antiviral activity against Influenza A virus (A/WSN/33(H1N1)) infected in MDCK cells assessed as reduction in viral titer compound preincubated with virus for 24 hrs followed by host cell infection measured after 24 hrs by AEC staining based inverted microscopic analysis. It counts as functional, organism-based. Conditions: A/WSN/1933(H1N1).

In assay [5] the test system is Human immunodeficiency virus 1. Briefly: Binding affinity to HIV1 5'-[32P]ON21 RNA in cacodylate buffer assessed as RNA cleavage rate constant for 3 hrs at pH 6.2 to 7.2.
Assay [6] deals with Influenza A virus. Briefly: Antiviral activity against Influenza A virus (A/WSN/33(H1N1)) infected in MDCK cells assessed as reduction in viral titer at 0.001 to 4 mM compound preincubated with virus for 24 hrs followed by host cell infection measured after 18 hrs by AEC staining based inverted microscopic analysis relative to control. Format: functional, A/WSN/1933(H1N1).
The test system of assay [7] is Influenza A virus. Description: Antiviral activity against Influenza A virus (A/WSN/33(H1N1)) infected in MDCK cells assessed as viral titer at 0.1 mM compound preincubated with virus for 24 hrs followed by host cell infection measured after 18 hrs by AEC staining based inverted microscopic analysis (reference value: 5.2 log10 FFU/ml). Format: functional, A/WSN/1933(H1N1).

For assay [8], the system named is Human immunodeficiency virus 1. Briefly: Binding affinity to HIV1 5'-[32P]ON21 RNA assessed as viral RNA cleavage at 1 mM measured after 3 and 7 hrs relative to control.
In assay [9] the test system is Influenza A virus. Description: Antiviral activity against Influenza A virus (A/WSN/33(H1N1)) infected in MDCK cells assessed as reduction in viral titer at 4 mM compound preincubated with virus for 24 hrs followed by host cell infection measured after 18 hrs by AEC staining based inverted microscopic analysis. Format: functional, A/WSN/1933(H1N1).
Assay [10] has as its system Influenza A virus. Description: Antiviral activity against Influenza A virus (A/WSN/33(H1N1)) infected in MDCK cells assessed as viral titer at 1 mM compound preincubated with virus for 24 hrs followed by host cell infection measured after 18 hrs by AEC staining based inverted microscopic analysis (reference value: 5.2 log10 FFU/ml). Format: functional, A/WSN/1933(H1N1).

The test system of assay [11] is Influenza A virus. Briefly: Antiviral activity against Influenza A virus (A/WSN/33(H1N1)) infected in MDCK cells assessed as viral titer at 2 mM compound preincubated with virus for 24 hrs followed by host cell infection measured after 18 hrs by AEC staining based inverted microscopic analysis (reference value: 5.2 log10 FFU/ml). Format: functional, A/WSN/1933(H1N1).

The subject of assay [12] is Influenza A virus. Briefly: Antiviral activity against Influenza A virus (A/WSN/33(H1N1)) infected in MDCK cells assessed as viral titer at 4 mM compound preincubated with virus for 24 hrs followed by host cell infection measured after 18 hrs by AEC staining based inverted microscopic analysis (reference value: 5.2 log10 FFU/ml). Format: functional, A/WSN/1933(H1N1).

For assay [13], the system named is Influenza A virus. Briefly: Antiviral activity against Influenza A virus (A/WSN/33(H1N1)) infected in MDCK cells assessed as viral titer at 0.2 mM compound preincubated with virus for 24 hrs followed by host cell infection measured after 18 hrs by AEC staining based inverted microscopic analysis (reference value: 5.2 log10 FFU/ml). It counts as functional, A/WSN/1933(H1N1).

For assay [14], the system named is Influenza A virus. Description: Antiviral activity against Influenza A virus (A/WSN/33(H1N1)) infected in MDCK cells assessed as reduction in viral titer at 2 mM compound preincubated with virus for 24 hrs followed by host cell infection measured after 18 hrs by AEC staining based inverted microscopic analysis relative to control. It counts as functional, A/WSN/1933(H1N1).

For assay [15], the system named is Influenza A virus. Description: Antiviral activity against Influenza A virus (A/WSN/33(H1N1)) infected in MDCK cells assessed as viral titer at 0.5 mM compound preincubated with virus for 24 hrs followed by host cell infection measured after 18 hrs by AEC staining based inverted microscopic analysis (reference value: 5.2 log10 FFU/ml). Format: functional, A/WSN/1933(H1N1).

Assay [16] has as its system Human immunodeficiency virus 1. Description: Binding affinity to HIV1 5'-[32P]ON21 RNA in Tris-Hcl buffer assessed as RNA cleavage rate constant for 5 hrs at pH 7.5.

Activity calls are given as the source filed them. The rule behind the calls is not given here. Where only a bound is given, the exact number is not on record here.

With `NCCCC[C@H](NCCCCCNC(=O)[C@@H](N)CCC(=O)O)C(=O)NCCCCCCCCCCCCNC(=O)[C@H](CCCCN)NC(=O)CCCCCNC(=O)[C@@H](N)CCC(=O)O`, the K in [1] was found to be 0.254 h⁻¹. Further, the TIME in assay [2] was 3 h. Besides, in the assay with MDCK, the concentration for half-maximal inhibition (IC50) amounted to 500 µM. Further, the Activity in assay [3] is 55%; in the assay on Influenza A virus [4] it was “Dose-dependent effect”; with Influenza A virus [7], 3.8 log10FFU/ml; in assay [8], 35%; in the assay on Influenza A virus [10], 3.7 log10FFU/ml. Further, in assay [5], the result was Active. The “fold change (FC)” value with Influenza A virus [6] and in the assay with Influenza A virus [9] was 1.5 each time.

As for `NCCCC[C@H](N)C(=O)NCCCCCC(=O)N[C@@H](CO)C(=O)NCCCOCCCCOCCCNC(=O)[C@H](CO)NC(=O)CCCCCNC(=O)[C@@H](N)CCCCN`, the K in [1] is 0.005 h⁻¹. Also, the TIME in assay [2] is more than 24 h. The Activity in [3] was 10%; in [8], 11%.

In the case of `N[C@@H](CO)C(=O)NCCCOCCCCOCCCNC(=O)[C@@H](N)CO`, the K in assay [1] was found to be 0.002 h⁻¹. Also, the TIME in [2] is more than 24 h. Further, the Activity in assay [3] turned out to be 6%; in assay [8], 3%.

As for `N[C@@H](CCC(=O)OCc1ccccc1)C(=O)NCCCCCCCCCCCCNC(=O)[C@@H](N)CCC(=O)OCc1ccccc1`, the K in assay [1] was 0.053 h⁻¹. In addition, in assay [2], the TIME is 9 h. In addition, the Activity is 2.3 log10FFU/ml with Influenza A virus [11]; 18% in assay [3]; “Dose-dependent effect” in the assay with Influenza A virus [4]; 45% in [8]; less than 1 log10FFU/ml in the assay on Influenza A virus [12]; 4.4 log10FFU/ml with Influenza A virus [13]. For the same compound, the IC50 in the assay on MDCK was more than 5000 µM.

As for `N=C(N)NCCC[C@H](N)C(=O)NCCCOCCCCOCCCNC(=O)[C@@H](N)CCCNC(=N)N`, the K in assay [1] came to 0.062 h⁻¹. In addition, in assay [2], the TIME was 10 h. In addition, the Activity amounted to 38% in [3] and 25% in assay [8].

As for `NCCCC[C@H](NC(=O)CCCCCNC(=O)[C@@H](N)CCC(=O)O)C(=O)NCCCOCCCCOCCCNC(=O)[C@H](CCCCN)NC(=O)CCCCCNC(=O)[C@@H](N)CCC(=O)O`, in [1], the K turned out to be 0.082 h⁻¹. The entries for the “fold change (FC)” value in the assay with Influenza A virus [14] and in the assay on Influenza A virus [6] were 3 and 1.5, respectively. In addition, the TIME in assay [2] came out at 6 h. Further, the Activity was 2.2 log10FFU/ml in the assay with Influenza A virus [11]; 57% in assay [3]; “Dose-dependent effect” in the assay on Influenza A virus [4]; 33% in [8]; 4.9 log10FFU/ml in the assay on Influenza A virus [13]. Moreover, in the assay on MDCK, the IC50 turned out to be 200 µM.

Turning to `N[C@@H](CO)C(=O)NCCCCCCCCCCCCNC(=O)[C@@H](N)CO`, the K in assay [1] amounted to 0.079 h⁻¹. In [2], the TIME amounted to 6 h. Besides, the Activity in assay [3] stood at 28%; in assay [8], 13%.

Turning to `NCCCC[C@H](N)C(=O)NCCCOCCCCOCCCNC(=O)[C@@H](N)CCCCN`, the K in assay [1] stood at 0.011 h⁻¹. Besides, the TIME in assay [2] was 20 h. In addition, the Activity was determined as 19% in assay [3] and 8% in assay [8].

Take `O=C(/C=C/c1c[nH]cn1)N[C@@H](CCCCNC(=O)OCc1ccccc1Cl)C(=O)NCCCOCCCCOCCCNC(=O)[C@H](CCCCNC(=O)OCc1ccccc1Cl)NC(=O)/C=C/c1c[nH]cn1`: the K in assay [1] was 0.11 h⁻¹. Further, in assay [2], the TIME came out at 7 h. The Activity with Influenza A virus [11] is 4 log10FFU/ml; in assay [3] it was 52%; in the assay on Influenza A virus [4], “Dose-dependent effect”; in assay [8], 42%; in the assay on Influenza A virus [13], 4.5 log10FFU/ml. The IC50 in the assay on MDCK stood at 700 µM.

`N[C@@H](CCC(=O)O)C(=O)NCCCCCCCCCCCCNC(=O)[C@@H](N)CCC(=O)O`: the K in assay [1] was determined as 0.276 h⁻¹. In addition, the TIME in assay [2] turned out to be 2 h. Moreover, the IC50 in the assay on MDCK is more than 5000 µM. For the same compound, the Activity was 60% in assay [3]; “Dose-dependent effect” in the assay on Influenza A virus [4]; 39% in assay [8]; 2.1 log10FFU/ml with Influenza A virus [15]; 4.8 log10FFU/ml with Influenza A virus [13]; less than 1 log10FFU/ml with Influenza A virus [10]. The result in [5] was Active. For the same compound, the “fold change (FC)” value in the assay on Influenza A virus [6] is given as 1.5.

With `NCCCC[C@H](N)C(=O)NCCCCCCCCCCCCNC(=O)[C@@H](N)CCCCN`, the K in [1] is 0.07 h⁻¹. In addition, in assay [2], the TIME stood at 7 h. For the same compound, the Activity is 24% in assay [3] and 8% in assay [8].

Consider `NCCCC[C@H](NC(=O)CCc1c[nH]cn1)C(=O)NCCCOCCCCOCCCNC(=O)[C@H](CCCCN)NC(=O)CCc1c[nH]cn1`, for which the K in assay [1] worked out at 0.076 h⁻¹. Besides, in assay [2], the TIME is 8 h. The outcome in assay [16] was Active. Besides, the Activity in [3] stood at 44%; in assay [8], 29%. In addition, the outcome in assay [5] was inactive.

For `N[C@@H](CCC(=O)O)C(=O)NCCCCCC(=O)N[C@@H](CO)C(=O)NCCCOCCCCOCCCNC(=O)[C@H](CO)NC(=O)CCCCCNC(=O)[C@@H](N)CCC(=O)O`, the K in assay [1] came to 0.033 h⁻¹. Also, in assay [2], the TIME was 17 h. Further, the Activity is 23% in assay [3] and 18% in assay [8].

These data come from ChEMBL document CHEMBL3763058, “Design, RNA cleavage and antiviral activity of new artificial ribonucleases derived from mono-, di- and tripeptides connected by linkers of different hydrophobicity” (Bioorg Med Chem, 2016).
